Read-outs that look alike come from different tables or passages of the source.

The target in one experiment is T1, ScLDM6×His I471T (Saccharomyces cerevisiae, UniProt P10614, I471T).
T1 construct: structurally aligned mutations in recombinant hexahistidine-tagged full-length Saccharomyces cerevisiae LDM6×His (ScLDM6×His); 6×His (hexahistidine) (C); made in house; host or cells: Saccharomyces cerevisiae strain AD3Δ ScErg11 I471T (overexpression from the PDR5 locus, native ERG11 disrupted)
Kind of experiment: Type II azole binding to affinity purified ScLDM6×His I471T. The conditions noted are these: for ΔAmax: type II binding. On the procedure: Protein purification was carried out using established methods. In brief, a 12 L culture for each control and test strain was grown overnight in 1 L volumes of YPD medium (1% [w/v] yeast extract [BD Difco], 2% [w/v] peptone [BD Difco], and 2% [w/v] D-glucose) in baffled 3 L flasks at 30 °C, with constant agitation (140 rpm). Cells harvested by centrifugation were broken by bead-beating and crude membrane fractions obtained by differential centrifugation, as previously described. The protein concentration of the crude membranes was estimated using the Lowry assay, with bovine serum albumin (Thermo Fisher) used as the protein standard. The crude membranes (1 g at 2.5 mg/mL) were detergent-solubilized using 10× critical micelle concentration (CMC) n-decyl-β-D-maltoside (DM) (Anatrace, Maumee, OH, USA) in buffer containing 10% (w/v) glycerol, 250 mM NaCl, 20 mM Tris pH 7.5, 0.5 mM phenylmethanesulfonyl fluoride (PMSF), and 1 EDTA-free protease inhibitor pill (Roche, Basel, Switzerland) per 300 mL. When the protein was to be used to assess in vitro binding affinity for the test azoles, detergent solubilized ScLDM6×His recovered after centrifugation was affinity purified using a nickel-nitrilotriacetic acid (Ni-NTA)-agarose matrix (Qiagen). The bound ScLDM6×His was eluted from the matrix using an affinity purification buffer containing 50 mM L-histidine. The L-histidine was removed by washing the enzyme through centrifugal filtration, using a 50 kDa molecular-weight cut-off Amicon Ultra-4 filter (Sigma, Auckland, New Zealand).
The concentration of functional ScLDM6×His purified by the nickel affinity method was quantitated using the standard carbon monoxide (CO) binding method. Type II drug binding assays that measure absorbance changes due to ligand interactions with ScLDM6×His were performed for VCZ and ITC, using an established protocol. The peak429nm-trough410nm difference spectra plotted against azole concentration were used to generate drug binding curves. All calculations were performed using GraphPad Prism 5 Software.

For experiment [1], the system named is S. cerevisiae strain AD3Δ ScErg11 (AD3Δ) overexpressing wild-type ScLDM6×His. Kind of experiment: Broth microdilution drug susceptibility assay (MIC80), strain AD3Δ ScErg11. The experiment is classed as cell-based, Saccharomyces cerevisiae. The conditions noted are these: strain AD3Δ; for MIC80: Saccharomyces cerevisiae, 48 h, 30 °C, pH 6.8, mean (± SEM), n = 3, read-out: MIC80; for MIC80/Relative Amount of ScLDM6×His: relative expression 1. As to the method: (§1) The native ScERG11 gene in yeast cells containing mutant ScERG11-6×His constructs in the PDR5 locus was disrupted by homologous recombination with a cassette encoding the His1 selection marker and sequences homologous with the regions bordering the endogenous ScERG11 ORF to create strains AD3Δ ScErg11 Y140H, AD3Δ ScErg11 I471T and AD3Δ ScErg11Y140H I471T [43]. Transformants were selected on SD-His agar plates incubated at 30 °C for 48–72 h. Genomic DNA was extracted, and DNA sequencing as above was used to confirm deletion of the native ERG11. Strain AD3Δ ScErg11 (denoted as AD3Δ), which overexpresses wild-type ScLDM6×His from the PDR5 locus and has the native ScERG11 gene disrupted, was used as a control strain [43].
(§2) Azole susceptibility was measured as the mean drug concentration required to inhibit 80% of yeast growth (MIC80) compared to a non-drug control, using a standard broth microdilution assay. Serial dilutions of short- (FLC and VCZ), medium- (VT-1161), and long-tailed (ITC and PCZ) azole drugs, and the control drugs micafungin (MCF) and amphotericin B (AMB), were prepared in a 96-well microtiter plate in complete synthetic media lacking uracil, buffered to pH 6.8 [34]. Control and test cells were seeded at an optical density of 600 nm (OD600) of 0.005 (~1.5 × 10^4 colony forming units). After incubation for 48 h at 30 °C with constant agitation (200 rpm), the OD600 nm of each well was measured using a Synergy 2 multi-mode plate reader (BioTek Instruments, Winooski, VT, USA). The experiment was repeated three times (a total of nine measurements for the response of each strain to each drug). GraphPad Prism 5.0 software was used for statistical analysis, using a one-way analysis of variance with a Bonferroni post-hoc test. The statistical significance of comparisons was accepted when p < 0.05.
On the technique in general: Dilution methods test growth across graded concentrations, often in twofold steps.

Experiment [2] deals with C. albicans strain SC5314. The experiment is described as follows: Agarose disk diffusion assay, control strain SC5314. The experiment is classed as cell-based, Candida albicans. The conditions noted are these: for effect of Cdr1p inhibitor RC21v3 on azole susceptibility: SC5314, RC21v3 at 6 µM in the assay medium. As to the method:
Agarose diffusion assays were carried out as described previously using the Darlington strain of C. albicans (Pfizer Ltd., Sandwich, UK) and the control C. albicans database strain SC5314, which is not resistant to azoles. The Cdr1p-specific inhibitor RC21v3 and the CaMdr1p-specific inhibitor MCC1189 (MicroCombiChem, Wiesbaden, Germany), included in the assay medium at 6 µM, were used to investigate the contribution of efflux pumps to azole resistance in the Darlington strain [49, 50, 51].
In general terms: Agar diffusion results depend on both activity and mobility in agar.

The test system of experiment [3] is S. cerevisiae strain AD3Δ ScErg11 Y140H expressing ScLDM6×His Y140H. The experiment is described as follows: Broth microdilution drug susceptibility assay (MIC80), strain AD3Δ ScErg11 Y140H. It counts as cell-based, Saccharomyces cerevisiae. The conditions noted are these: for MIC80: Saccharomyces cerevisiae, 48 h, 30 °C, pH 6.8, mean (± SEM), n = 3; for MIC80 / MIC80/Relative Amount of ScLDM6×His / fold-resistance based on the relative amount of recombinant enzyme compared with strain AD3Δ: strain Y140H; for MIC80/Relative Amount of ScLDM6×His / fold-resistance based on the relative amount of recombinant enzyme compared with strain AD3Δ: relative expression 0.74. As to the method: as §1, §2

Where [4] appears, read: I471T mutant ScLDM6×His, supplement, 'in the 0.5 μM range'.
Where [5] appears, read: I471T mutant enzyme, in the presence of 2 µM enzyme, read-out: IC50 from type II binding curves.
The mark [6] stands for this setting: ScLDM6×His I471T, 2 µM enzyme, (± SEM), μM, read-out: [Azole]0.5.

T1 sequence (P10614 whole entry I471T): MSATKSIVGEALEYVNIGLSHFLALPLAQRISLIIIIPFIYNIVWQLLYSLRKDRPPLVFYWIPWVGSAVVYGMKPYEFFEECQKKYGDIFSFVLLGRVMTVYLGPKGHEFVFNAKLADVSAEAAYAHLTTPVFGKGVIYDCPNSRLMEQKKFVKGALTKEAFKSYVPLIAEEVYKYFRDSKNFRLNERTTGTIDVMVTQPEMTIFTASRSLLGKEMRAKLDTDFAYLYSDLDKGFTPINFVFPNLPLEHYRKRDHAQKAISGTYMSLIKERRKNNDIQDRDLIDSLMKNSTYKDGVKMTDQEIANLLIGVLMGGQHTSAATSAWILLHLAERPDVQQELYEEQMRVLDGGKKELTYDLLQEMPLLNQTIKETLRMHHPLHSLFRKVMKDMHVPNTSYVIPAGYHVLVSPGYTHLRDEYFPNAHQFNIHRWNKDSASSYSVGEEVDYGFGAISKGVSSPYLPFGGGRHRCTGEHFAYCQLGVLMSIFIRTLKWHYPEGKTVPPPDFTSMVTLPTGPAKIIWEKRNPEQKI

`C[C@@H](c1ncncc1F)[C@](O)(Cn1cncn1)c1ccc(F)cc1F` [VCZ, voriconazole] gave a Kd at ScLDM6×His I471T (setting [4]) of approximately 500 nM. Moreover, the IC50 on ScLDM6×His I471T (setting [5]) lay within 0.6 to 0.8 µM. For the same molecule, the IC50 at ScLDM6×His I471T (setting [6]) is 0.75 µM. Moreover, on ScLDM6×His I471T (ScLDM6×His I471T, (± SEM)), the ΔAmax was 0.07 (0.003), the Hill number is recorded as 1.88 (0.23) and binding was put at a Kd of 580 nM. Further, in experiment [1], the MIC80 stood at 0.0933 µM and the “MIC80/Relative Amount of ScLDM6×His” value amounted to 0.0933 µM. Moreover, the “effect of Mdr1 inhibitor MCC1189 on azole susceptibility” value in experiment [2] (SC5314, MCC1189 at 6 µM in the assay medium) was “did not alter the susceptibility”. For the same molecule, the “effect of Cdr1p inhibitor RC21v3 on azole susceptibility” value in experiment [2] is reported as “did not alter the susceptibility”. In addition, in experiment [2] (SC5314, no efflux pump inhibitor), the “agarose diffusion susceptibility” value is given as “susceptible”. In addition, in experiment [3], the MIC80 was 0.164 µM, the “MIC80/Relative Amount of ScLDM6×His” value came to 0.221 µM and the “fold-resistance based on the relative amount of recombinant enzyme compared with strain AD3Δ” value was found to be 2.4 ×. Also, in experiment [3] (ScLDM6×His Y140H vs AD3Δ), the “resistance conferred, relative amount of recombinant ScLDM6×His taken into account” value was found to be 2.4 fold. Moreover, the “MIC80 higher than strain AD3Δ ScErg11” value in experiment [3] (strain AD3Δ ScErg11 Y140H vs AD3Δ, not corrected for expression, p < 0.001) is ~ 2 fold.

`CCC(C)n1ncn(-c2ccc(N3CCN(c4ccc(OCC5COC(Cn6cncn6)(c6ccc(Cl)cc6Cl)O5)cc4)CC3)cc2)c1=O` (stereo not drawn) [ITC, itraconazole] displayed a dissociation constant (Kd) at ScLDM6×His I471T (setting [4]) of approximately 500 nM. Further, the IC50 on ScLDM6×His I471T (setting [5]) lay in the range of 0.6 to 0.8 µM. Moreover, on ScLDM6×His I471T (setting [6]), the IC50 turned out to be 0.79 µM. In addition, on ScLDM6×His I471T (ScLDM6×His I471T, (± SEM)), the ΔAmax is 0.06 (0.001); the Hill number is given as 1.55 (0.19); the affinity, expressed as Kd, was 700 nM. In experiment [1], the MIC80 was 0.143 µM and the “MIC80/Relative Amount of ScLDM6×His” value was found to be 0.143 µM. Also, in experiment [2], the “effect of Mdr1 inhibitor MCC1189 on azole susceptibility” value is “no effect on susceptibility” and the “effect of Cdr1p inhibitor RC21v3 on azole susceptibility” value was “increased susceptibility”. Also, in experiment [3], the MIC80 came to 0.112 µM, the “MIC80/Relative Amount of ScLDM6×His” value is 0.151 µM and the “fold-resistance based on the relative amount of recombinant enzyme compared with strain AD3Δ” value was 1.1 ×. Besides, the “susceptibility compared with AD3Δ cells” value in experiment [3] (cells overexpressing ScLDM6×His Y140H, not corrected for expression) is “slightly increased susceptibility”.

For orientation: Kd means the free concentration of one partner at which half of the binding sites on the other are occupied at equilibrium, for simple one-to-one binding. The low end stands for higher affinity, the high end for lower affinity. Broadly, the MIC80 is an inhibitory concentration at the 80% level, which refers to growth in some studies and to a panel of isolates in others.

The values above are taken from article PMC8621857, “Structural Insights into the Azole Resistance of the Candida albicans Darlington Strain Using Saccharomyces cerevisiae Lanosterol 14α-Demethylase as a Surrogate” (Journal of Fungi, 2021).
